{"source": "patent US12673022B2", "about": "“Drug delivery system using solution” (Kyoto University, priority 2018, dated 2026)", "key": {"[1]": {"test_system": "EGFP reporter cells (C2C12 cells)", "assay": "EGFP-SSA assay: uptake of Cas9 protein/gRNA complex into cells (EGFP positive rate)", "type": "cell-based, mouse", "details": "for Compound activity: EGFP positive rate (%): reaction solution 1 (550 mM sodium chloride, 1 mM HEPES, Cas9 protein/gRNA), 30 minutes; for EGFP positive rate: Example 4, compound 250 mM, FIG. 8"}, "[2]": {"test_system": "EGFP reporter cells (C2C12 cells)", "assay": "Number of HOECHST cells detected (cell viability) in the EGFP-SSA assay", "details": "Example 1, formula (2)", "procedure": "To each of the solutions, a complex of gRNA and Cas9 protein was further dissolved. Mouse myoblasts (C2C12 cells) were contacted with each of the solutions in vitro, and target gene cleavage activity and cell viability were evaluated."}, "[3]": {"test_system": "EGFP reporter cells (C2C12 cells)", "assay": "EGFP-SSA assay: uptake of Cas9 protein/gRNA complex into cells (EGFP positive rate)", "type": "cell-based, mouse", "details": "for Compound activity: EGFP positive rate (%): Example 1, compound 250.0 mM, reaction solution 1 (550 mM sodium chloride, 1 mM HEPES, Cas9 protein/gRNA), 30 minutes; for EGFP positive rate (activity) with different (B) salts: Example 3, reaction solutions 3-1 to 3-6: 250 mM GABA, 50 mM HEPES, salt varied, FIG. 7", "source_text": "EGFP-SSA assay: an abbreviation of EGFP-single strand annealing assay. The reporter cassette shown in FIG. 1 is inserted in EGFP reporter cells. In the middle of the EGFP sequence of the cassette, MmDMD-Ex51 sequence is inserted. Since the presence of MmDMD-Ex51 sequence, by which EGFP ORF is divided, EGFP protein is not usually translated. However, when target sequence of MmDMD-Ex51 is cleaved by Cas9 protein/gRNA complex, the upstream region (EG part) and the downstream region (FP part) of EGFP ORF are annealed via a homology area into a single strand, with the result that a full-length EGFP ORF emerges to produce EGFP protein. Based on this principle, the ratio of the number of cells producing EGFP is checked by the EGFP-SSA assay. In this manner, the amount of Cas9 protein/gRNA complex delivered to cells can be predicted.\n(§1) Cas9 protein (0.4 μg), tracrRNA (34.18 ng), MmDmd Ex51 crRNA (29.48 ng), a 1 M HEPES buffer (0.05 μL) and a 5 M aqueous sodium chloride solution (5.5 μL) were mixed and diluted with UltraPure DNase/RNase-Free Distilled Water up to a liquid volume of 37.5 μL so as to obtain final concentrations: 8 ng/μL Cas9 protein, 0.68 ng/μL tracrRNA, 0.59 ng/μL MmDmd Ex51 crRNA, 1 mM HEPES, 550 mM sodium chloride, and 250 mM compound. To this solution, a 1000 mM compound solution (12.5 μL) was added and the solution mixture was incubated at normal temperature for 15 minutes.\nas §1, with “buffer (2.5” for “buffer (0.05”, “solution (4.85” for “solution (5.5”, “crRNA, 50” for “crRNA, 1”, “HEPES, 485” for “HEPES, 550”, “minutes. Note that, in the cases where the final concentrations of the compound are 0.69 mM, 25 mM, 100 mM, 125 mM, 160 mM, 200 mM and 500 mM, the compound stock solution was diluted with UltraPure DNase/RNase-Free Distilled Water up to concentrations of 2.76 mM, 100 mM, 400 mM, 500 mM, 640 mM, 800 mM and 2000 mM, respectively, and then, added. […]” for “minutes.”\nCas9 protein (2.0 μg), tracrRNA (170.9 ng), MmDmd Ex51 crRNA (147.4 ng), a 1 M HEPES buffer (12.5 μL), a 5 M aqueous sodium chloride solution (18.35 μL) and a 1 M aqueous GABA solution (62.5 μL) were mixed, diluted with UltraPure DNase/RNase-Free Distilled Water up to a liquid volume of 250 μL so as to obtain final concentrations: 8 ng/μL Cas9 protein, 0.68 ng/μL tracrRNA, 0.59 ng/μL MmDmd Ex51 crRNA, 50 mM HEPES, 250 mM GABA and 367 mM sodium chloride, and incubated at normal temperature for 15 minutes. Note that the addition amount of the 5 M aqueous sodium chloride solution was changed to 24.25 μL in the case of 485 mM sodium chloride and the addition amount was changed to 27.5 μL in the case of 550 mM sodium chloride, respectively."}, "[4]": {"details": "compound 200.0 mM vs 250 mM GABA positive control on the same plate"}, "[5]": {"details": "compound 250.0 mM vs 250 mM GABA positive control on the same plate"}, "[6]": {"details": "compound 125.0 mM vs 250 mM GABA positive control on the same plate"}, "[7]": {"details": "compound 500.0 mM vs 250 mM GABA positive control on the same plate"}}, "data": [{"smiles": "OC[C@H]1O[C@@H](O[C@H]2[C@H](O)[C@@H](O)[C@H](O)O[C@@H]2CO)[C@H](O)[C@@H](O)[C@@H]1O", "note": "[D(+)-cellobiose]", "values": [{"measurement": "Compound activity: EGFP positive rate (%)", "setting": "[1]; Example 1, compound 200.0 mM", "value": 1.18, "unit": "%"}, {"measurement": "Relative ratio to GABA: Number of HOECHST cells", "setting": "[2]; [4]", "value": 1.00}]}, {"smiles": "NCCCC(=O)O", "note": "[GABA, γ-aminobutyric acid, reference compound]", "values": [{"measurement": "EGFP positive rate", "setting": "[3]; Example 4, sodium chloride 550 mM, compound 250 mM, FIG. 8", "value": 1.4, "unit": "%"}, {"measurement": "Compound activity: EGFP positive rate (%)", "setting": "[1]; Example 1, compound 200.0 mM", "value": 1.39, "unit": "%"}, {"measurement": "EGFP positive rate", "setting": "[1]; sodium chloride 150 mM", "value": "less than 1%"}, {"measurement": "EGFP positive rate", "setting": "[1]; sodium chloride 350 mM", "value": "less than 1%"}, {"measurement": "Relative ratio to GABA: Number of HOECHST cells", "setting": "[2]; [4]", "value": 1.00}]}, {"smiles": "O=C(O)CCC(O)C(=O)O", "note": "(stereo not shown) [2-Hydroxyglutaric acid]", "values": [{"measurement": "Compound activity: EGFP positive rate (%)", "setting": "[3]", "value": 1.89, "unit": "%"}, {"measurement": "Relative ratio to GABA: Number of HOECHST cells", "setting": "[2]; [5]", "value": 0.83}]}, {"smiles": "O=c1ccn([C@H]2C[C@H](O)[C@@H](CO)O2)c(=O)[nH]1", "note": "[2′-Deoxyuridine]", "values": [{"measurement": "Compound activity: EGFP positive rate (%)", "setting": "[1]; Example 1, compound 100.0 mM", "value": 1.10, "unit": "%"}, {"measurement": "Relative ratio to GABA: Number of HOECHST cells", "setting": "[2]; compound 100.0 mM vs 250 mM GABA positive control on the same plate", "value": 0.88}]}, {"smiles": "CC(C)C(=O)C(=O)O", "note": "[Sodium 3-methyl-2-oxobutate]", "values": [{"measurement": "Compound activity: EGFP positive rate (%)", "setting": "[1]; Example 1, compound 200.0 mM", "value": 1.71, "unit": "%"}, {"measurement": "Relative ratio to GABA: Number of HOECHST cells", "setting": "[2]; [4]", "value": 0.53}]}, {"smiles": "CN1CC(=O)NC1=N", "note": "[Creatinine]", "values": [{"measurement": "Relative ratio to GABA: EGFP positive rate (%)", "setting": "[1]; Example 1, compound 200.0 mM vs 250 mM GABA positive control on the same plate, formula (1)", "value": 2.50}, {"measurement": "Compound activity: EGFP positive rate (%)", "setting": "[1]; Example 1, compound 200.0 mM", "value": 2.27, "unit": "%"}, {"measurement": "Relative ratio to GABA: Number of HOECHST cells", "setting": "[2]; [4]", "value": 0.84}]}, {"smiles": "[Cl-].[Cl-].[Mg+2]", "note": "[magnesium chloride]", "values": [{"measurement": "EGFP positive rate (activity) with different (B) salts", "setting": "[3]", "value": "almost the same activity"}]}, {"smiles": "CC(C)(CO)[C@@H](O)C(=O)NCCC(=O)O", "note": "[Calcium pantothenate]", "values": [{"measurement": "Compound activity: EGFP positive rate (%)", "setting": "[1]; Example 1, compound 160.0 mM", "value": 0.25, "unit": "%"}, {"measurement": "Relative ratio to GABA: Number of HOECHST cells", "setting": "[2]; compound 160.0 mM vs 250 mM GABA positive control on the same plate", "value": 1.50}]}, {"smiles": "O=C(O)[C@H](O)[C@@H](O)[C@H](O)[C@H](O)COP(=O)(O)O", "note": "[6-Phospho-D-gluconic acid]", "values": [{"measurement": "Compound activity: EGFP positive rate (%)", "setting": "[3]", "value": 2.61, "unit": "%"}, {"measurement": "Relative ratio to GABA: Number of HOECHST cells", "setting": "[2]; [5]", "value": 1.31}]}, {"smiles": "NCCC(=O)N[C@@H](Cc1cnc[nH]1)C(=O)O", "note": "[L-Carnosine]", "values": [{"measurement": "Compound activity: EGFP positive rate (%)", "setting": "[1]; Example 1, compound 125.0 mM", "value": 1.76, "unit": "%"}, {"measurement": "Relative ratio to GABA: Number of HOECHST cells", "setting": "[2]; [6]", "value": 0.98}]}, {"smiles": "Cn1cnc(C[C@H](N)C(=O)O)c1", "note": "[1-Methyl-L-histidine]", "values": [{"measurement": "Compound activity: EGFP positive rate (%)", "setting": "[3]", "value": 3.54, "unit": "%"}, {"measurement": "Relative ratio to GABA: Number of HOECHST cells", "setting": "[2]; [5]", "value": 0.68}]}, {"smiles": "OCCN1C[C@H](O)[C@@H](O)[C@H](O)[C@H]1CO", "note": "[Miglitol]", "values": [{"measurement": "Compound activity: EGFP positive rate (%)", "setting": "[1]; Example 1, compound 125.0 mM", "value": 1.55, "unit": "%"}, {"measurement": "Relative ratio to GABA: Number of HOECHST cells", "setting": "[2]; [6]", "value": 0.83}]}, {"smiles": "CC(O)CCO", "note": "(stereo not shown) [1,3-Butylene glycol]", "values": [{"measurement": "Compound activity: EGFP positive rate (%)", "setting": "[1]; Example 1, compound 0.69 mM", "value": 3.62, "unit": "%"}, {"measurement": "Relative ratio to GABA: Number of HOECHST cells", "setting": "[2]; compound 0.69 mM vs 250 mM GABA positive control on the same plate", "value": 1.03}]}, {"smiles": "O=P(O)(O)O[C@H]1O[C@H](CO)[C@@H](O)[C@H](O)[C@H]1O", "note": "[α-D-Glucose-1-phosphate]", "values": [{"measurement": "Compound activity: EGFP positive rate (%)", "setting": "[3]", "value": 2.52, "unit": "%"}, {"measurement": "Relative ratio to GABA: Number of HOECHST cells", "setting": "[2]; [5]", "value": 1.29}]}, {"smiles": "CNC(=O)NC", "note": "[1,3-Dimethylurea]", "values": [{"measurement": "Compound activity: EGFP positive rate (%)", "setting": "[1]; Example 1, compound 500.0 mM", "value": 2.64, "unit": "%"}, {"measurement": "Relative ratio to GABA: Number of HOECHST cells", "setting": "[2]; [7]", "value": 0.68}]}, {"smiles": "Nc1ccn([C@@H]2O[C@H](CO)[C@@H](O)[C@H]2O)c(=O)n1", "note": "[Cytidine]", "values": [{"measurement": "Compound activity: EGFP positive rate (%)", "setting": "[1]; Example 1, compound 125.0 mM", "value": 2.24, "unit": "%"}, {"measurement": "Relative ratio to GABA: Number of HOECHST cells", "setting": "[2]; [6]", "value": 1.58}]}, {"smiles": "Nc1cc[nH]c(=O)n1", "note": "[Cytosine]", "values": [{"measurement": "Compound activity: EGFP positive rate (%)", "setting": "[1]; Example 1, compound 25.0 mM", "value": 0.61, "unit": "%"}, {"measurement": "Relative ratio to GABA: Number of HOECHST cells", "setting": "[2]; compound 25.0 mM vs 250 mM GABA positive control on the same plate", "value": 0.77}]}, {"smiles": "O=C(O)[C@@H]1CC(O)CN1", "note": "(stereo partly shown) [4-Hydroxyproline]", "values": [{"measurement": "Compound activity: EGFP positive rate (%)", "setting": "[1]; Example 1, compound 500.0 mM", "value": 35.82, "unit": "%"}, {"measurement": "Relative ratio to GABA: Number of HOECHST cells", "setting": "[2]; [7]", "value": 0.62}]}, {"smiles": "[Cl-].[Na+]", "note": "[sodium chloride]", "values": [{"measurement": "EGFP positive rate (activity) with different (B) salts", "setting": "[3]", "value": "almost the same activity"}]}]}
